The text below walks through data of patent US20250144067A1, “PERSONALIZED STARVATION THERAPY FOR CANCER” (Faeth Therapeutics, Inc., priority 2021, published 2025).

Where a name gives a salt, the structure may show the parent alone.

Assay [1] deals with NCI-H292 lung cancer cells. Nature of the assay: FDA drug screening, complete media vs cholesterol-free media without statin (TABLE 1). Type of assay: cell-based, human.
Assay [2] deals with NCI-H292 lung cancer cells. Nature of the assay: FDA drug screening, complete media vs cholesterol-free media with simvastatin (TABLE 2). Format: cell-based, human. The following applies: for Cholesterol-free media + simvastatin (0.04 μM) / Complete Media: NCI-H292 cells.
[3] abbreviates: NCI-H292 cells, cholesterol-free media without statin, FDA drug library screen.
[4] abbreviates: NCI-H292 cells, complete media, FDA drug library screen.
[5] abbreviates: complete vs cholesterol-free media, […].
Setting [6] is: drug in cholesterol-free media with simvastatin 0.04 μM.
Where [7] appears, read: complete media vs cholesterol-free media + simvastatin (0.04 μM), […].
Where [8] appears, read: Complete minus Cholesterol-free, >0 enhanced anti-cancer activity, about 0 neutral, <0 antagonist.
The mark [9] stands for this setting: NCI-H292 cells, cholesterol-free media without statin.
Where [10] appears, read: complete media vs cholesterol-free media + simvastatin (0.04 μM), >0 enhanced anti-cancer activity, about 0 neutral, <0 antagonist.
Setting [11] is: complete vs cholesterol-free media, >0 enhanced anti-cancer activity, about 0 neutral, <0 antagonist.
Setting [12] is: FDA library drug in complete media.
[13] abbreviates: complete vs cholesterol-free media, greater than 0 enhanced anti-cancer activity, about 0 neutral, below 0 antagonists.
The mark [14] stands for this setting: cholesterol-free media with simvastatin 0.04 μM, FDA drug library screen (TABLE 2).
The mark [15] stands for this setting: complete media, FDA drug library screen (TABLE 2).
Setting [16] is: complete media minus cholesterol-free media + simvastatin (0.04 μM), >0 enhanced anti-cancer activity, about 0 neutral, <0 antagonist.
Where [17] appears, read: cholesterol-free media with simvastatin 0.04 μM, cell growth value in FDA drug screen.
[18] abbreviates: complete media, cell growth value in FDA drug screen.
Where [19] appears, read: complete media minus cholesterol-free media + simvastatin, >0 enhanced anti-cancer activity, about 0 neutral, <0 antagonist.
[20] abbreviates: FDA drug library screen, cholesterol-free media with simvastatin 0.04 μM.
Setting [21] is: FDA drug library screen, complete media.
[22] abbreviates: Complete minus Cholesterol-free, greater than 0 enhanced anti-cancer activity, about 0 neutral, below 0 antagonist.
The mark [23] stands for this setting: NCI-H292 cells, FDA drug library screen, cholesterol-free media without statin.
Where [24] appears, read: NCI-H292 cells, FDA drug library screen, complete media.

For the compound `C=CCC(C(=O)NC(N)=O)C(C)C` (stereo not drawn) [Apronal], the Cholesterol-free in assay [1] (setting [3]) is recorded as 1.287. This compound also showed a Complete in assay [1] (setting [4]) of 1.458. Also, the Difference is reported as 0.17 in assay [1] (setting [5]) and −0.21 in assay [2] (setting [7]). In addition, in assay [2] (setting [6]), the “Cholesterol-free media + simvastatin (0.04 μM)” value is reported as 1.688. Also, the “Complete Media” value in assay [2] (drug in complete media) was 1.479.
On to `CCCC(CCC)C(=O)O` [Valproic acid (sodium salt)], for which the Difference was −0.26 in assay [1] (setting [8]) and −0.24 in assay [2] (setting [10]). This compound also returned a Cholesterol-free in assay [1] (setting [9]) of 0.9818. Also, the Complete in assay [1] (NCI-H292 cells, complete media) came to 0.7267. The “Cholesterol-free media + simvastatin (0.04 μM)” value in assay [2] (setting [6]) amounted to 0.961. Further, the “Complete Media” value in assay [2] (drug in complete media) was 0.7238.
`CCc1nn(CCCN2CCN(c3cccc(Cl)c3)CC2)c(=O)n1CCOc1ccccc1` [Nefazodone (hydrochloride)]: in assay [1] (setting [3]), the Cholesterol-free was determined as 0.8256. Moreover, the Complete in assay [1] (setting [4]) was found to be 1.655. For the same compound, the results for the Difference in assay [1] (setting [11]) and in assay [2] (setting [10]) were 0.83 and −0.75, respectively. For the same compound, in assay [2] (FDA library drug in cholesterol-free media with simvastatin 0.04 μM), the “Cholesterol-free media + simvastatin (0.04 μM)” value was found to be 1.025. Also, in assay [2] (setting [12]), the “Complete Media” value is recorded as 0.2752.
As to `CC(C)NCC(O)COc1cccc2ccccc12` (stereo not drawn) [Propranolol (hydrochloride)], the Cholesterol-free in assay [1] (setting [9]) was determined as 1.016. The compound further returned a Complete in assay [1] (NCI-H292 cells, complete media) of 0.5683. Besides, the results for the Difference in assay [1] (setting [13]) and in assay [2] (setting [16]) were −0.45 and 0.00, respectively. Moreover, the “Cholesterol-free media + simvastatin (0.04 μM)” value in assay [2] (setting [14]) is 0.8722. Moreover, in assay [2] (setting [15]), the “Complete Media” value was 0.8715.
In assay [1] (setting [9]), `CCCN1CCCC[C@H]1C(=O)Nc1c(C)cccc1C` [Ropivacaine (hydrochloride monohydrate)] returned a Cholesterol-free of 0.9717. In addition, the Complete in assay [1] (NCI-H292 cells, complete media) is 0.6061. Besides, the Difference is given as −0.37 in assay [1] (setting [13]) and 0.05 in assay [2] (setting [19]). Besides, in assay [2] (setting [17]), the “Cholesterol-free media + simvastatin (0.04 μM)” value is given as 1.378. Also, the “Complete Media” value in assay [2] (setting [18]) is listed as 1.433.
In assay [1] (setting [9]), `Nc1c(CC(=O)O)cccc1C(=O)c1ccc(Br)cc1` [Bromfenac (sodium)] registered a Cholesterol-free of 1.333. In assay [1] (NCI-H292 cells, complete media), the Complete came out at 0.9935. In addition, the Difference in assay [1] (setting [13]) is −0.34; in assay [2] (setting [10]) it was −0.59. The “Complete Media” value in assay [2] (setting [12]) was 1.029.
In assay [1] (setting [3]), `Cc1oc(=O)oc1CN1CCN(c2cc3c(cc2F)c(=O)c(C(=O)O)c2n3C(C)S2)CC1` (stereo not drawn) [Prulifloxacin] yielded a Cholesterol-free of 1.111. This compound also had a Complete in assay [1] (setting [4]) of 1.213. The Difference in assay [1] (setting [11]) is 0.10; in assay [2] (setting [19]) it was 0.21. Besides, the “Cholesterol-free media + simvastatin (0.04 μM)” value in assay [2] (setting [20]) came out at 0.966.
`CN1CCN2c3ccccc3Cc3ccccc3C2C1` (stereo not drawn) [Mianserin (hydrochloride)]: in assay [1] (setting [3]), the Cholesterol-free came to 1.049. The values for the Difference in assay [1] (setting [11]) and in assay [2] (setting [10]) were 0.13 and −0.10, respectively. In addition, the “Cholesterol-free media + simvastatin (0.04 μM)” value in assay [2] (setting [20]) is 1.121. The “Complete Media” value in assay [2] (setting [21]) is given as 1.021.
Consider Mafenide (Acetate), for which the Difference in assay [1] (setting [22]) was −0.16; in assay [2] (setting [19]) it was 0.07. This compound came in with a Cholesterol-free in assay [1] (setting [23]) of 1.179. In assay [1] (setting [24]), this compound gave a Complete of 1.017. The “Cholesterol-free media + simvastatin (0.04 μM)” value in assay [2] (setting [17]) was determined as 0.8255. Moreover, in assay [2] (setting [18]), the “Complete Media” value is on record as 0.8982.
As for `NC12CC3CC(CC(C3)C1)C2` [Amantadine (hydrochloride)], the Cholesterol-free in assay [1] (setting [3]) was 0.9565. For the same compound, the Complete in assay [1] (setting [4]) stood at 1.419. Moreover, the Difference in assay [1] (setting [5]) is 0.46; in assay [2] (setting [7]) it was −0.18. The “Cholesterol-free media + simvastatin (0.04 μM)” value in assay [2] (setting [6]) is 1.14. Besides, the “Complete Media” value in assay [2] (drug in complete media) worked out at 0.9614.
`CN1CC(=O)N2[C@H](c3ccc4c(c3)OCO4)c3[nH]c4ccccc4c3C[C@@H]2C1=O` [Tadalafil]: the Cholesterol-free in assay [1] (setting [9]) was 1.298. The compound further showed a Complete in assay [1] (NCI-H292 cells, complete media) of 0.971. Also, the Difference in assay [1] (setting [13]) was −0.33; in assay [2] (setting [10]), −0.08. Besides, in assay [2] (setting [20]), the “Cholesterol-free media + simvastatin (0.04 μM)” value came to 1.05. Also, the “Complete Media” value in assay [2] (setting [21]) came out at 0.9711.
Consider Danofloxacin (mesylate), for which the Difference is on record as −0.77 in assay [1] (Complete minus Cholesterol-free, greater than 0 enhanced anti-cancer activity, about 0 neutral, below 0 antagonists) and 0.10 in assay [2] (setting [19]). Besides, the Cholesterol-free in assay [1] (NCI-H292 cells in cholesterol-free media without statin) was determined as 1.786. In assay [1] (NCI-H292 cells in complete media), this compound had a Complete of 1.013. The “Cholesterol-free media + simvastatin (0.04 μM)” value in assay [2] (setting [17]) is given as 0.9788. The “Complete Media” value in assay [2] (setting [18]) was determined as 1.081.
Regarding `CC(=O)NO` [Acetohydroxamic acid], the Difference is listed as −0.28 in assay [1] (setting [8]) and 0.02 in assay [2] (setting [19]). The Cholesterol-free in assay [1] (setting [9]) is 1.174. The compound also returned a Complete in assay [1] (NCI-H292 cells, complete media) of 0.8978. For the same compound, the “Cholesterol-free media + simvastatin (0.04 μM)” value in assay [2] (setting [17]) turned out to be 0.8799. For the same compound, in assay [2] (setting [18]), the “Complete Media” value came to 0.8992.
For `O=C(O)C[C@H](O)C[C@H](O)/C=C/c1c(C2CC2)nc2ccccc2c1-c1ccc(F)cc1` [Pitavastatin (Calcium)], the Difference in assay [1] (setting [22]) is given as −0.07; in assay [2] (setting [16]), −0.04. In addition, the Cholesterol-free in assay [1] (setting [23]) was determined as 0.4408. The compound also showed a Complete in assay [1] (setting [24]) of 0.3693. In addition, the “Cholesterol-free media + simvastatin (0.04 μM)” value in assay [2] (setting [14]) is on record as 0.4883. For the same compound, the “Complete Media” value in assay [2] (setting [15]) was 0.4437.
Regarding `O=C(O)/C=C/c1ccc(Cn2ccnc2)cc1` [Ozagrel], the Difference in assay [1] (setting [8]) is −0.04; in assay [2] (setting [19]), 0.44. Further, in assay [1] (setting [3]), the Cholesterol-free amounted to 1.079. The compound also had a Complete in assay [1] (setting [4]) of 1.034. Further, the “Cholesterol-free media + simvastatin (0.04 μM)” value in assay [2] (setting [20]) is on record as 1.504. The “Complete Media” value in assay [2] (setting [21]) worked out at 1.942.
Take `CCC(c1ccccc1)c1c(O)c2ccccc2oc1=O` (stereo not drawn) [Phenprocoumon]: in assay [1] (setting [9]), the Cholesterol-free is given as 1.312. Further, the Complete in assay [1] (NCI-H292 cells, complete media) was 0.8729. Besides, the Difference in assay [1] (setting [13]) is given as −0.44; in assay [2] (setting [10]) it was −0.16. The “Cholesterol-free media + simvastatin (0.04 μM)” value in assay [2] (setting [6]) turned out to be 1.071. Besides, the “Complete Media” value in assay [2] (drug in complete media) was 0.9061.
Regarding `OC1(c2ccc(Cl)c(C(F)(F)F)c2)CCN(CCCC(c2ccc(F)cc2)c2ccc(F)cc2)CC1` [Penfluridol], the Difference is on record as −0.14 in assay [1] (setting [22]) and −0.04 in assay [2] (setting [16]). The same compound displayed a Cholesterol-free in assay [1] (setting [23]) of 0.7419. The compound further had a Complete in assay [1] (setting [24]) of 0.6047. Further, in assay [2] (setting [14]), the “Cholesterol-free media + simvastatin (0.04 μM)” value is reported as 1.076. For the same compound, the “Complete Media” value in assay [2] (setting [15]) is 1.033.
The compound `COc1c(N2CCNC(C)C2)c(F)cc2c(=O)c(C(=O)O)cn(C3CC3)c12` (stereo not drawn) [Gatifloxacin] registered a Cholesterol-free in assay [1] (setting [3]) of 1.137. The same compound registered a Complete in assay [1] (setting [4]) of 1.266. The Difference is 0.13 in assay [1] (setting [11]) and 0.08 in assay [2] (setting [19]). Besides, the “Cholesterol-free media + simvastatin (0.04 μM)” value in assay [2] (setting [17]) is given as 0.9418. Moreover, the “Complete Media” value in assay [2] (setting [18]) was found to be 1.02.
On to `O=C1NS(=O)(=O)c2ccccc21` [Saccharin], for which the Difference is recorded as 0.01 in assay [1] (setting [8]) and −0.10 in assay [2] (setting [10]). In addition, the Cholesterol-free in assay [1] (setting [3]) came to 0.9292. The compound further came in with a Complete in assay [1] (setting [4]) of 0.9415. Also, the “Cholesterol-free media + simvastatin (0.04 μM)” value in assay [2] (setting [20]) was 0.8779. The “Complete Media” value in assay [2] (setting [21]) came out at 0.7765.
